# Results published in patent US20070117770A1, “Human ribosomal DNA (rDNA) and ribosomal RNA (rRNA) nucleic acids and uses thereof” (Cylene Pharmaceuticals, Inc., priority 2005, published 2007).
# How the values were obtained:
# A549 cells = assay: Cell localization assay (fluorescence microscope); type: cell-based; conditions: 2 uM, one hour or two hours
# Protocol: A cell localization assay was utilized to determine cell localization for compounds that interacted with rRNA. In these studies, A549 cells were plated in borosilicate chamber slides. The cells were treated with 2 uM compound A-1 the next day for one hour or two hours, washed with PBS, fixed for 10 min in 4% paraformaldehyde and observed under a fluorescence microscope (Olympus) in the Ex360 nm/Em548 nm channel at 600× magnification. […] Accordingly, a compound tested in the assay was localized in cell nucleoli.
# [1] = biological target: T1, nucleolin/nucleic acid ligand (Homo sapiens, UniProt P19338); assay: EMSA, interference with nucleolin/nucleic acid ligand interactions (ligands derived from human ribosomal DNA); type: binding
# T1 construct: without the N-terminal acidic stretches domain
# Protocol: The following assays assessed effects of compounds on interactions between nucleolin and nucleic acid ligands capable of forming quadruplex (QP) and hairpin (HP) secondary structures. Nucleic acid ligands tested were a cMyc QP DNA having nucleotide sequence 5′-[…]-3′ (SEQ ID NO: 176) and a HP pre-rRNA region to which nucleolin binds, having the sequence 5′-[…]-3′ (SEQ ID NO: 177). In the assays, recombinant nucleolin (˜250 nM), which was fused to maltose binding protein and had the sequence under accession number NM_005381 without the N-terminal acidic stretches domain, was incubated with each of the two ^32P-labeled nucleic acid ligands (10 or 250 nM). Nucleolin and the nucleic acid ligand were incubated in the presence or absence of a test compound of Formula A-1, B-1, C-6 or C-7 in an incubation buffer (12.5 mM Tris, pH 7.6, 60 mM KCl, 1 mM MgCl2, 0.1 mM EDTA, 1 mM DTT, 5% glycerol, 0.1 mg/ml BSA) for 30 minutes at room temperature. Structures for A-1 and B-1 are shown above and structures for C-6 and C-7 are shown hereafter: [drawing 17] The resulting complexes were separated on a 6% DNA retardation gel using 0.5× TBE with 20 mM KCl as a running buffer (i.e., electrophoresis mobility shift assay (EMSA)).
# The assay also was conducted using nucleic acid ligands derived from human ribosomal DNA. Sequences of these nucleic acids are shown in the preceding example. […]
# [2] = test system: mixed-parallel quadruplex structure; conditions: cited from earlier work
# T1 sequence (P19338 284-710 limits assumed): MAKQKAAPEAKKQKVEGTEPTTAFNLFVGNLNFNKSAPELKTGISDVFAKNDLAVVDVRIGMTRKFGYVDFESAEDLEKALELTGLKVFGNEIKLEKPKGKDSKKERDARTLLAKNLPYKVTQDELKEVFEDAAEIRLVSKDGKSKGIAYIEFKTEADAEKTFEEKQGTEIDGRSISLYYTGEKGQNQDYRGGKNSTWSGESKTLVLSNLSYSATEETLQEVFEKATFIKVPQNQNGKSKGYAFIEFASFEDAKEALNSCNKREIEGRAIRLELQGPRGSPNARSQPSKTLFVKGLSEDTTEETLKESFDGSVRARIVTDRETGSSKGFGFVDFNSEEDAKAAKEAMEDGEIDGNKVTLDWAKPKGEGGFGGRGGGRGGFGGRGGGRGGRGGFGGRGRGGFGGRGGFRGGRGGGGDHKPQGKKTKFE
smiles,measurement,setting,value
CN1CCCC1CCNC(=O)c1cn2c3c(c(N4CCC(c5cnccn5)C4)c(F)cc3c1=O)Oc1cc3ccccc3cc1-2 (stereo not drawn) [Compound A-1],cell localization judged by fluorescence intensity,A549 cells,"accumulated in the nucleoli, as well as the cytoplasm/perinuclear space"
same,interference with nucleolin/nucleic acid ligand interactions,[1],interfered with nucleolin/nucleic acid ligand interactions
same,preferred quadruplex structure in competition assays,[2],interact preferentially with a mixed-parallel quadruplex structure
